Results taken from the Deep4Chem optical property database.
Each block holds one molecule with its values, some of them ahead of it.

Assay: solvent given as SMILES

absorption maximum (in C1COCCO1): 394 nm | absorption maximum (in CC#N): 395 nm | absorption maximum (in CCCCOCCCC): 398 nm | absorption maximum (in CCOC(C)=O): 395 nm
SMILES: COc1nc(Nc2ccc3cc4ccccc4cc3c2)nc(OC)n1

absorption maximum (in ClCCl): 314 nm
SMILES: COc1cc2c(cc1OC)C1=C[C@H](c3ccc(Cl)cc3)C3(C(C#N)=C(C#N)N1CC2)c1cc(Cl)ccc1-c1ccc(Cl)cc13

absorption maximum (in ClC(Cl)Cl): 765 nm
SMILES: COc1ccc2c(c1)O[B-]13Oc4cc(OC)ccc4-c4cc(-c5ccccc5)c(n41)N=C1C(c4ccccc4)=CC2=[N+]13 (stereo unspecified)

absorption maximum (in C1COCCO1): 274.85 nm | absorption maximum (in CC#N): 275 nm | absorption maximum (in O): 275 nm
SMILES: N#Cc1ccc2[nH]ccc2c1

absorption maximum (in CC#N): 394 nm | absorption maximum (in ClCCl): 394 nm
SMILES: COC(=O)c1cc(=O)n(C)c2cc(-c3cccc(OC)c3)sc12

absorption maximum (in ClCCl): 712 nm
SMILES: F[B-]1(F)n2c(c3ccccc3c2-c2ccccc2)N=C2c3ccccc3C(c3ccccc3)=[N+]21

absorption maximum (in C1CCOC1): 627 nm | absorption maximum (in CS(C)=O): 636 nm | absorption maximum (in ClCCl): 618 nm
SMILES: COc1cc(OC)cc(C2=C3C(C)=C(I)C(C)=[N+]3[B-](F)(F)n3c(/C=C/c4c[nH]c5ccccc45)c(I)c(C)c32)c1

SMILES: C[n+]1ccc(-c2ccc([O-])cc2)cc1
absorption maximum (in CC#N): 472 nm | absorption maximum (in CC(C)=O): 479 nm | absorption maximum (in CC(C)O): 457 nm | absorption maximum (in CCC(C)O): 460 nm | absorption maximum (in CCCO): 441 nm | absorption maximum (in CO): 418 nm | absorption maximum (in CS(C)=O): 473 nm | absorption maximum (in O): 394 nm

absorption maximum (in ClCCl): 377 nm
SMILES: c1ccc2cc(-c3c4ccccc4c(-c4ccc(-n5c6ccccc6c6ccccc65)cc4)c4ccccc34)ccc2c1

absorption maximum (in CO): 346 nm
SMILES: c1ccc(N(c2ccccc2)c2ccc(-c3cncs3)cc2)cc1

SMILES: c1ccc(C(=C(c2ccccc2)c2ccc(-c3ccc(-c4nc5c(-c6ccc(-c7ccc(C(=C(c8ccccc8)c8ccccc8)c8ccccc8)cc7)cc6)sc(-c6ccc(-c7ccc(C(=C(c8ccccc8)c8ccccc8)c8ccccc8)cc7)cc6)c5nc4-c4ccc(-c5ccc(C(=C(c6ccccc6)c6ccccc6)c6ccccc6)cc5)cc4)cc3)cc2)c2ccccc2)cc1
absorption maximum (in Cc1ccccc1): 530 nm | absorption maximum (in ClCCl): 520 nm

absorption maximum (in ClC(Cl)Cl): 662 nm
SMILES: COc1ccc(-c2c(-c3ccc(C)cc3)c3n(c2-c2ccc(C)cc2)[B-](F)(F)[N+]2=C(c4ccc(C)cc4)C(/C=C/C(=O)OC4CC[C@@]5(C)C(=CC[C@H]6[C@@H]7CC[C@H]([C@H](C)CCCC(C)C)[C@@]7(C)CC[C@@H]65)C4)=C(c4ccc(C)cc4)C2=N3)cc1 (stereo partly specified)

absorption maximum (in C1CCOC1): 497 nm
SMILES: CCOC(=O)c1ccc(C2=CC3=c4cc(-c5ccc(C(=O)OCC)cc5)c5nc(C(F)(F)C(F)(F)C(F)(F)F)nc6c(-c7ccc(C(=O)OCC)cc7)cc(c4c65)C4=CC(c5ccc(C(=O)OCC)cc5)=C5N=C(C(F)(F)C(F)(F)C(F)(F)F)N=C2C5C43)cc1 (stereo unspecified)

SMILES: c1ccc2c(c1)-c1ccccc1C21c2ccccc2N(c2ccc(-c3nc([C@]45CC6CC(C[C@@H](C6)C4)C5)nc([C@]45C[C@H]6C[C@@H](C[C@H](C6)C4)C5)n3)cc2)c2ccccc21
absorption maximum (in Cc1ccccc1): 380.1 nm

absorption maximum (in CC#N): 355 nm | absorption maximum (in ClCCl): 346 nm
SMILES: Nc1nc2ccc([N+](=O)[O-])cc2s1

SMILES: CCOC(=O)C(C(=O)OCC)C1=[N+]2C(=C(c3ccc(C)cc3)c3ccc(C(C(=O)OCC)C(=O)OCC)n3[B-]2(F)F)C=C1
absorption maximum (in C1CCCCC1): 515 nm | absorption maximum (in C1CCOC1): 512 nm | absorption maximum (in CCOC(C)=O): 510 nm | absorption maximum (in CO): 509 nm | absorption maximum (in Cc1ccccc1): 514 nm | absorption maximum (in ClC(Cl)Cl): 513 nm

SMILES: O=c1oc2ccc(Br)cc2cc1-c1cc2cc(Br)ccc2o1
absorption maximum (in CC#N): 370 nm | absorption maximum (in CCOC(C)=O): 371 nm | absorption maximum (in CS(C)=O): 374 nm | absorption maximum (in Cc1ccccc1): 377 nm | absorption maximum (in O): 331 nm

SMILES: CC(C)(C)c1ccc2c(c1)c1cc3c4cc(C(C)(C)C)ccc4c4c5c6ccc(C(C)(C)C)cc6c6cc7c8cc(C(C)(C)C)ccc8c8c2c1c(c34)c(c78)c65
absorption maximum (in CCCCCC): 542.15 nm | absorption maximum (in CCOCC): 541.57 nm | absorption maximum (in Cc1ccccc1): 545.85 nm

absorption maximum (in ClC(Cl)Cl): 430 nm
SMILES: c1ccc(-c2nc(-c3ccc(N4CCCC4)cc3)cc(-c3ccc4ccccc4c3)n2)cc1

absorption maximum (in CCO): 331 nm
SMILES: COC(=O)C(C)NC(=O)CCNc1cccc2ccccc12 (stereo unspecified)

absorption maximum (in ClC(Cl)Cl): 439 nm
SMILES: COc1ccc(C2=Cc3ccc4ccccc4[n+]3[B-](F)(F)O2)cc1

absorption maximum (in CO): 370 nm
SMILES: Cc1cc(C)c(B(c2cc(-c3c(C)cc(C)cc3C)sc2-c2sc(-c3c(C)cc(C)cc3C)cc2P(=O)(c2ccccc2)c2ccccc2)c2c(C)cc(C)cc2C)c(C)c1

absorption maximum (in CC#N): 334 nm | absorption maximum (in CCOC(C)=O): 334 nm | absorption maximum (in CN(C)C=O): 342 nm | absorption maximum (in CS(C)=O): 344 nm | absorption maximum (in c1ccccc1): 332 nm
SMILES: CCOC(=O)CN(CC(=O)OCC)c1ccc(-c2cc(-c3ccncc3)nc(-c3ccncc3)c2)cc1

absorption maximum (in C1CCOC1): 356 nm | absorption maximum (in CC#N): 355 nm | absorption maximum (in CCCCCC): 352 nm
SMILES: CC(O)CC1=N/C(=C\c2cccc(N(C)C)c2)C(=O)N1C (stereo unspecified)

SMILES: CCNc1cc2oc(=O)cc(C(F)(F)F)c2cc1C
absorption maximum (in CC#N): 383 nm

absorption maximum (in ClCCl): 575 nm
SMILES: CC1=C(C#Cc2ccc([Si](c3ccccc3)(c3ccccc3)c3ccccc3)cc2)C(C)=[N+]2C1=C(c1ccccc1)c1c(C)c(C#Cc3ccc([Si](c4ccccc4)(c4ccccc4)c4ccccc4)cc3)c(C)n1[B-]2(F)F

absorption maximum (in C1COCCO1): 322 nm | absorption maximum (in CC#N): 322 nm | absorption maximum (in CC(C)O): 321 nm | absorption maximum (in CCCCO): 321 nm | absorption maximum (in CCO): 321 nm | absorption maximum (in CCOC(C)=O): 322 nm | absorption maximum (in CN(C)C=O): 324 nm | absorption maximum (in CO): 321 nm | absorption maximum (in CS(C)=O): 325 nm | absorption maximum (in O): 319 nm
SMILES: O=S(=O)([O-])c1ccc(O)c2ccccc12

SMILES: Cc1cc(C)c(C2=[N+]3C(=Cc4c(C)cc(C)n4[B-]3(F)F)c3ccccc32)[nH]1
absorption maximum (in C1CCOC1): 609 nm | absorption maximum (in CC#N): 601 nm | absorption maximum (in CCCCCC): 610 nm | absorption maximum (in CO): 603 nm | absorption maximum (in Cc1ccccc1): 616 nm | absorption maximum (in ClCCl): 609 nm

SMILES: CC1=[N+]2C(=C(c3c4ccccc4c(C)c4ccccc34)c3ccc(C)n3[B-]2(F)F)C=C1
absorption maximum (in CC#N): 514 nm | absorption maximum (in CCCCCC): 515 nm | absorption maximum (in CCO): 515 nm | absorption maximum (in CN(C)C=O): 517 nm | absorption maximum (in Cc1ccccc1): 519 nm | absorption maximum (in ClCCl): 517 nm

absorption maximum (in ClCCl): 372 nm
SMILES: CC(=O)c1c(N[C@@H](CC(C)C)C(=O)O)c2ccc(N(C)C)cc2oc1=O

SMILES: CC(C)(C)c1cc2ccc3cc(C(C)(C)C)cc4c3c2c(c1)c(=O)n1c4nc2c3ccccc3c3ccccc3c21
absorption maximum (in C1CCOC1): 354 nm | absorption maximum (in CC#N): 365 nm | absorption maximum (in CC(C)=O): 365 nm | absorption maximum (in CCCCCC): 367 nm | absorption maximum (in CCO): 366 nm | absorption maximum (in CCOC(C)=O): 366 nm | absorption maximum (in CO): 362 nm | absorption maximum (in CS(C)=O): 368 nm | absorption maximum (in Cc1ccc(C)cc1): 368 nm | absorption maximum (in ClC(Cl)(Cl)Cl): 369 nm | absorption maximum (in ClC(Cl)Cl): 368 nm | absorption maximum (in c1ccccc1): 369 nm

SMILES: COc1cc(C2=c3c(c4ccc(C(C)(C)C)cc4c4c(OC)c(OC)c(OC)cc34)=[N+]3C2=Nc2c(-c4cc(OC)c(OC)c(OC)c4)c4c5cc(OC)c(OC)c(OC)c5c5cc(C(C)(C)C)ccc5c4n2[B-]3(F)F)cc(OC)c1OC
absorption maximum (in Cc1ccccc1): 808 nm
